Laboratory results published in patent US20230329906A1, “INTRAOCULAR DELIVERY OF BIOACTIVE MOLECULES USING IONTOPHORESIS” (KEMIN INDUSTRIES, INC., priority 2014, published 2023).

What was measured:
[1] = Lutein distribution in human cadaveric eyes after corneo-scleral iontophoresis, two-photon microscopy; type: in vitro ADME; settings: 2.5 mA for 5 min cornea/sclera, 80 min rest
Procedure: (§1) A typical iontophoretic setting is made of two components: ocular applicator and a return electrode both connected to a generator. In this experiment, the ocular applicator comprised 2 electrodes to address independently corneal and scleral tissues. The ocular applicator (OPIA Technologies SAS, Paris, France) is made of polyurethane resin and comprises 2 reservoirs: central circular reservoir (diameter 8 mm, height 4.5 mm, volume 1 ml) and a stainless steel electrode, applied on the cornea surrounded by an annular reservoir (inner diameter 12.5 mm, outer diameter 18 mm height 4.5 mm, volume 1 ml) and a stainless steel electrode, applied on the sclera (pars plana region around the limbus). Each stainless steel electrode connected with a lead to a different constant current generator (anode —positive electrode). The return electrodes were assigned to each generator and respectively attached to the optic nerve (for the corneal electrode) and the equator region of the sclera (for scleral electrode), closing each electrical circuit independently.
Cadaveric eyes. Six human cadaveric eye globes, from different healthy donors, were obtained from the Veneto Eye Bank Foundation (Venezia Zelarino, Italy). […]
(§2) Preparation of the eyes. […] After pre-conditioning, the central corneal thickness (CCT) was measured, using an ultrasound corneal pachymeter (Pachmate, DGH, Exton, USA). […]

[2] = Resonance Raman spectroscopy of ocular tissues of human cadaveric eyes after iontophoresis; type: in vitro ADME
Procedure: as §1
Cadaveric eyes. Six human cadaveric eye globes, from different healthy donors, were obtained from the Veneto Eye Bank Foundation (Venezia Zelarino, Italy). The human eyes were used in compliance with the guidelines of the Declaration of Helsinki for research involving the use of human tissue and were explanted between 3 and 16 hours after death and immediately preserved at 4° C. in corneal storage medium enriched with 6% dextran. The mean donor age was 63.6±5.9 years. The mean endothelial cell density was 2125±389 cells/mm^2. Each eye globe, submerged in dextran enriched solution, was shipped to the laboratory within 5 days. Four eye globes underwent corneo-scleral iontophoresis to deliver 0.1% lutein ophthalmic solution into the retinal tissue. Two eye globes were used as control: iontophoresis was performed without presence of the formulation.
as §2

Structure (SMILES): CC1=C[C@H](O)CC(C)(C)[C@H]1/C=C/C(C)=C/C=C/C(C)=C/C=C/C=C(C)/C=C/C=C(C)/C=C/C1=C(C)C[C@@H](O)CC1(C)C [lutein]
- Lutein distribution within the retina, outer versus inner part [1]: more lutein in the outer part close to the photoreceptors than in the ganglion cells
- Lutein in the retina [1]: abundant in the retina
- Raman peak at 1530 cm−1, treated eye versus control eye ([2]; inner sclera): 7 times
- Raman peak at 1530 cm−1, treated eye versus controls ([2]; macula): 1.3 times
- Raman peak at 1530 cm−1, treated eye versus control eye ([2]; retinal mid-periphery): 1.7 times
